The test system of experiment [1] is ADNP heterozygous male mice. Nature of the experiment: Passive avoidance test. The format is in vivo, mouse. The procedure: The heterozygous ADNP mice were generated as before (Pinhasov et al., Brain Res. Dev. Brain Res. 2003, 144:83-90; and Vulih-Shultzman et al., J Pharmacol Exp Ther. 2007, 323(2):438-49). To avoid any variability in results associated with the estrous cycle in females, only ADNP^+/− male mice are use for behavioral experiments.
Iso-NAP (NAXaaVSIXaaQ; SEQ ID NO:1) was dissolved in a vehicle solution, in which each milliliter included 7.5 mg of NaCl, 1.7 mg of citric acid monohydrate, 3 mg of disodium phosphate dihydrate, and 0.2 mg of benzalkonium chloride solution (50%). Iso-NAP or vehicle solution (DD) was administered to mice handheld in a semi-supine position with nostrils facing the investigator. A pipette tip was used to administer 2.5 μl/each nostril. The mouse was handheld until the solution is entirely absorbed. Nasal Iso-NAP application was performed daily, once a day, for 2 weeks for the Morris water maze test. In the 2nd week, Iso-NAP was applied 1 h before the daily test (see below), which was conducted for 5 consecutive days. In the passive avoidance test, all mice were treated for a total of 7 days, on the 7th day of treatment the test began. Iso-NAP was applied 1 h before the test.
The passive avoidance task is a fear-motivated avoidance task based on the mouse conflict between avoiding the light stimulus and approaching the dark chamber in which a painful shock is given. The mouse learns to refrain from stepping through a door to an apparently safer but previously punished dark compartment. The latency to refrain from crossing into the punished compartment serves as an index of the ability to avoid, and allows memory to be assessed (Johns Hopkins University, Department of Psychological and Brain Sciences, website: nbc.jhu.edu/protocols/PassiveAvoidanceProtocol.aspx). […]
The experiment is carried out for three days. […] The time to enter the dark compartment is recorded. […] The door is opened after 30 seconds, and the time it takes the mouse to enter the dark chamber is recorded. […] After 30 seconds (T0), the door is opened and the latency to enter the dark chamber is recorded. […]

The target of experiment [2] is VQIVYK (SEQ ID NO:10) peptide derived from tau (Homo sapiens, UniProt P10636). Nature of the experiment: In vitro tau-like VQIVYK aggregation assay (Thioflavin S). The format is biochemical. The procedure: In the presence of polyglutamic acid (or heparin), VQIVYK (SEQ ID NO:10) aggregates which can be further detected by Thioflavin S (excitation 485 nm and emission 535) with emission intensity greatly increasing.
First, different concentrations of polyglutamic acid (0, 100 μM, 250 μM, and 400 μM) VQIVYK (SEQ ID NO:10) and either […] (NH4Ac) 50 mM pH 6.5 or MOPS 20 mM pH 6.5 and Thioflavin S 5 μM were mixed together and incubated at room temperature. The extent of aggregation was read at excitation 485 nm and emission 535 nm using the infinite 200 system with the Magellan program.
The peptides were added at a range of concentrations (10^−17-10^−9 M) and the extent of aggregation of 100 μM VQIVYK (SEQ ID NO:10) was tested in the presence of polyglutamate 250 μM in MOPS 20 μM, pH 6.5 for 7 days.
In order to avoid reading self peptide aggregation as VQIVYK aggregation, for each peptide concentration, the fluorescence of the peptide solution without VQIVYK was subtracted from the fluorescence of each peptide concentration containing VQIVYK.

The mark [3] stands for this setting: 100 μM VQIVYK, polyglutamate 250 μM, MOPS pH 6.5, 7 days, FIG. 4, p<0.0005 vs. control, listed as IsoNAP.

Entries after “also recorded” stand apart in the source; their conditions may differ. Non-standard residues stand in square brackets, D forms with d. No end group written: not given here. Aib = CC(C)(N)C(=O)O

On to “NAXaaVSIXaaQ (NA[Aib]VSI[Aib]Q) [Alpha-aminoisobutyric NAP, both prolines of NAP substituted]”, for which the “latency to enter the dark room at T0 and T30 vs T-trial” value in experiment [1] (2 μg/mice intranasal, P<0.05) is “entered the dark room significantly slower than on the T-trial”. In addition, the “effect on learning and memory (conclusion)” value in experiment [1] (2 μg/mice, conclusion from Morris water maze and passive avoidance tests) is “seems to affect positively learning and memory”. Moreover, the “latency to enter the dark room” value in experiment [1] (30 μg/mice intranasal) is “entered the dark room faster than the NAP2 group”. Also, in experiment [2] (setting [3]), the “inhibition of tau aggregation at 10^−13M” value is “remains effective; also recorded: more effective than NAP” and the “inhibition of tau aggregation at 10^−17M” value is listed as “more potent; also recorded: more effective than NAP”. In addition, the “prevention of tau aggregation (overall)” value in experiment [2] (peptides at 10^−17-10^−9 M) is given as “effective for preventing tau aggregation”.

The values are drawn from patent US8586548B2, “NAP alpha-aminoisobutyric acid analog with neuroprotective activity” (Ramot at Tel-Aviv University, Ltd., priority 2009, dated 2013).
